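Grown in 96-well plates, cells were treated for 48 hours with each compound at five concentrations. Insufficient inhibition: endpoint recorded as highest concentration tested. GI50 = concentration required for 50% inhibition of growth.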 Calls of active or inactive are those of the source. No stated cut-off is given here; in the data, active = GI50 up to about 1.1 µM and inactive = higher.

Common to all, as to assay: inhibition of tumour cell growth, NCI panel, 48 h
Assay [1] deals with A498.
The subject of assay [2] is A549.
The subject of assay [3] is MDA-MB-435.
Assay [4] concerns SNB-19.
The subject of assay [5] is ACHN.
In assay [6] the test system is MDA-MB-231.
In assay [7] the test system is HL-60.
The test system of assay [8] is NCI-H460.
Assay [9] concerns SK-MEL-2.
Assay [10] deals with 786-0.
Assay [11] concerns K562.
The subject of assay [12] is NCI/ADR-RES.
The subject of assay [13] is SN12C.
The test system of assay [14] is M14.
Assay [15] deals with SF-268.
The subject of assay [16] is RXF 393.
Assay [17] relates to MCF7.
Assay [18] concerns CCRF-CEM.
Assay [19] relates to SK-OV-3.
Assay [20] has as its system SF-539.

Consider `Nc1nc(Cc2ccccc2)nc(Cc2ccccc2)c1-c1ccccc1`, for which the GI50 in assay [1] is 26 µM (inactive); in assay [2] it was 33.9 µM (inactive); in [3], 22.9 µM (inactive); in assay [4] it was 75.7 µM (inactive); in assay [5], 29 µM (inactive); in assay [6] it was 18.7 µM (inactive). For the same compound, the GI50 in assay [7] was 24 µM (inactive); in [8], 28.2 µM (inactive); in [9], 13.6 µM (inactive); in [10], 22.9 µM (inactive); in assay [11], 18 µM (inactive); in [12], 16.7 µM (inactive). Further, the GI50 is 28.2 µM (inactive) in assay [13], 30.3 µM (inactive) in assay [14], 31 µM (inactive) in assay [15] and 22.6 µM (inactive) in [16].
With `c1ccc(C[N+]23C(CC[C@H]2c2ccccc2)CC[C@H]3c2ccccc2)cc1` (some centres not stated), the GI50 in [1] was > 100 µM (inactive); in assay [2] it was 36.6 µM (inactive); in [3], 18.7 µM (inactive); in assay [4], 29.5 µM (inactive); in assay [5], > 100 µM (inactive); in assay [17], 24.4 µM (inactive). The GI50 in assay [6] was 34.9 µM (inactive); in assay [7], 11.2 µM (inactive); in assay [18] it was 27.4 µM (inactive); in assay [9], 29.9 µM (inactive); in [10] it was 32.4 µM (inactive); in assay [11], 9.38 µM (inactive). Besides, the GI50 in assay [13] is 37.5 µM (inactive); in assay [19], 67.9 µM (inactive); in assay [14], 21.6 µM (inactive); in assay [15], 43.5 µM (inactive); in [16] it was 18.3 µM (inactive).
With `Clc1ccc(Cc2nc3ccccc3nc2-c2cccc(Br)c2)cc1`, the GI50 in assay [2] was 17 µM (inactive); in assay [3], 2.14 µM (inactive); in assay [4] it was 1.52 µM (inactive); in assay [5] it was 1.91 µM (inactive); in assay [20], 2.26 µM (inactive); in [17], 3.17 µM (inactive). Besides, the GI50 in [6] was 3.6 µM (inactive); in assay [7], 2.84 µM (inactive); in assay [8] it was 18.3 µM (inactive); in assay [18], 1.07 µM (active); in [9] it was 4.67 µM (inactive); in [10] it was 1.75 µM (inactive). Besides, the GI50 in [11] was 2.8 µM (inactive); in assay [12] it was 3.08 µM (inactive); in assay [13] it was 3.1 µM (inactive); in assay [19] it was 16.8 µM (inactive); in [14], 2.32 µM (inactive); in assay [15], 19.8 µM (inactive). In [16], the GI50 is 2.47 µM (inactive).
As to `Cc1ccc(N2C(=O)C3c4[nH]c5ccc(C)cc5c4C4CCC(C(C)(C)C)CC4C3C2=O)cc1` (configuration not stated), the GI50 in assay [2] is 13.6 µM (inactive); in [3], 17.7 µM (inactive); in assay [4], 26.5 µM (inactive); in [17] it was 11.3 µM (inactive); in assay [6] it was 10.3 µM (inactive); in assay [7], 17.3 µM (inactive). The GI50 in assay [8] was 7.36 µM (inactive); in assay [18], 7.59 µM (inactive); in assay [9], 35.8 µM (inactive); in assay [10], 4.9 µM (inactive); in assay [11] it was 4.05 µM (inactive); in assay [12], 19.5 µM (inactive). Besides, the values for the GI50 in assay [13], in assay [14] and in assay [15] were 12.6 µM (inactive), 31 µM (inactive) and 11.9 µM (inactive), respectively.
In the case of `O=C(O)[C@H]1CCCN1CP(=O)(O)CN1CCC[C@@H]1C(=O)O`, the GI50 in assay [2], in assay [3], in [4], in assay [5], in [17] and in assay [6] was > 100 µM (inactive) throughout. Further, the GI50 in assay [7], in assay [8], in [18], in [9], in assay [10] and in [11] was > 100 µM (inactive) throughout. In addition, the GI50 in [12], in [13], in [19], in assay [14], in [15] and in [16] was > 100 µM (inactive) each time.
In the case of `COc1ccc(NC(=O)CC(=O)NN)cc1`, the GI50 in [2], in assay [3], in [4], in assay [5], in assay [20] and in [17] was > 100 µM (inactive) each time. Moreover, the GI50 in assay [6], in assay [7], in assay [8], in assay [18], in assay [9] and in assay [10] was > 100 µM (inactive) throughout. Besides, the GI50 in assay [11], in assay [12], in assay [13], in [19], in [15] and in assay [16] was > 100 µM (inactive) throughout.
In the case of `CCCCCCCCCC(=O)NC(CCC(=O)N(CCNC(=O)c1nc(-c2ccccc2)oc1-c1ccccc1)Cc1ccccc1)C(=O)O` (configuration not stated), the GI50 in assay [1] was 21.2 µM (inactive); in assay [2], 17.4 µM (inactive); in assay [3], 18.7 µM (inactive); in assay [4], 17.4 µM (inactive); in [5], 18.8 µM (inactive); in assay [20], 24 µM (inactive). For the same compound, the GI50 in assay [6] is 19.9 µM (inactive); in assay [8], 38.1 µM (inactive); in [10], 17.7 µM (inactive); in [12], 16.6 µM (inactive); in assay [13], 18.7 µM (inactive); in [19], 16.9 µM (inactive). For the same compound, the values for the GI50 in assay [14], in assay [15] and in assay [16] were 15 µM (inactive), 16.5 µM (inactive) and 17.6 µM (inactive), respectively.
As for `N#Cc1nc(-c2ccc(-c3nc(C#N)c(N)o3)cc2)oc1N`, the GI50 in assay [2], in assay [3], in assay [4], in assay [5], in assay [20] and in assay [17] was > 10 µM (inactive) each time. The GI50 in [6], in assay [7], in [8], in assay [18], in assay [10] and in assay [11] was > 10 µM (inactive) in each case. Also, the GI50 in [12], in assay [13], in [19], in assay [14], in [15] and in [16] was > 10 µM (inactive) in each case.
Take `CN(C)CCCN1c2ccc3ccccc3c2Sc2cccc(Cl)c21`: the GI50 in assay [1] is 9.82 µM (inactive); in assay [2], 5.81 µM (inactive); in assay [3] it was 1.98 µM (inactive); in assay [4], 5.87 µM (inactive); in [5], 3.38 µM (inactive); in [20], 4.32 µM (inactive). Further, the GI50 in assay [6] is 2.32 µM (inactive); in assay [7], 1.63 µM (inactive); in assay [8], 1.77 µM (inactive); in assay [18] it was 1.52 µM (inactive); in [9] it was 1.99 µM (inactive); in assay [10], 2.99 µM (inactive). Moreover, the GI50 was 1.73 µM (inactive) in assay [11]; 5.56 µM (inactive) in assay [12]; 6.19 µM (inactive) in assay [13]; 11.4 µM (inactive) in [19]; 1.89 µM (inactive) in [14]; 5.69 µM (inactive) in [15]. The GI50 in assay [16] is 3.82 µM (inactive).
Turning to `FC(F)(F)c1cc(Cl)cnc1N/N=C(/c1ccccc1)c1ccccn1`, the GI50 was 3.03 µM (inactive) in assay [2]; 4.85 µM (inactive) in [3]; 4.67 µM (inactive) in assay [4]; 2.92 µM (inactive) in assay [5]; 3.66 µM (inactive) in assay [20]; 3.13 µM (inactive) in [17]. For the same compound, the GI50 in assay [6] is 4.09 µM (inactive); in assay [8], 3.68 µM (inactive); in assay [18], 0.492 µM (active); in [9], 3.96 µM (inactive); in assay [10], 2.84 µM (inactive); in assay [11], 2.16 µM (inactive). The GI50 in assay [12] was 2.34 µM (inactive); in [13], 5.36 µM (inactive); in [19], 2.49 µM (inactive); in assay [14], 0.719 µM (active); in assay [15] it was 0.78 µM (active); in assay [16] it was 9.66 µM (inactive).
Consider `CCN(CC)CCSc1nc2c(c(=N)n1-c1ccccc1)c(=S)n(-c1ccccc1)c(=S)n2-c1ccccc1`, for which the GI50 was 8.85 µM (inactive) in assay [1]; 2.08 µM (inactive) in assay [2]; 1.85 µM (inactive) in assay [3]; 18.3 µM (inactive) in assay [4]; 1.74 µM (inactive) in assay [5]; 4.45 µM (inactive) in assay [20]. In addition, the GI50 in assay [6] is 1.83 µM (inactive); in [7], 0.0559 µM (active); in assay [8], 1.91 µM (inactive); in assay [18], 0.0843 µM (active); in [9] it was 7.55 µM (inactive); in assay [10] it was 0.441 µM (active). Moreover, the GI50 was 0.601 µM (active) in [11]; 5.36 µM (inactive) in [12]; 1.73 µM (inactive) in assay [13]; 6.65 µM (inactive) in [19]; 2.16 µM (inactive) in assay [14]; 1.67 µM (inactive) in [15]. Besides, the GI50 in [16] is 1.36 µM (inactive).

Source of the values: ChEMBL document CHEMBL1201862, “PubChem BioAssay data set” (2004).
